Laboratory results as given in PMC8887894, “Pyruvate:ferredoxin oxidoreductase and low abundant ferredoxins support aerobic photomixotrophic growth in cyanobacteria” (eLife, 2022).
pKi: −log10 of the molar value.

Molecular target: T1, SynLPD (dihydrolipoyl dehydrogenase, E3 subunit of the PDH complex) (Synechocystis sp. PCC 6803, UniProt P72740)
T1 construct: gene lpdA
T1 sequence (P72740 2-474): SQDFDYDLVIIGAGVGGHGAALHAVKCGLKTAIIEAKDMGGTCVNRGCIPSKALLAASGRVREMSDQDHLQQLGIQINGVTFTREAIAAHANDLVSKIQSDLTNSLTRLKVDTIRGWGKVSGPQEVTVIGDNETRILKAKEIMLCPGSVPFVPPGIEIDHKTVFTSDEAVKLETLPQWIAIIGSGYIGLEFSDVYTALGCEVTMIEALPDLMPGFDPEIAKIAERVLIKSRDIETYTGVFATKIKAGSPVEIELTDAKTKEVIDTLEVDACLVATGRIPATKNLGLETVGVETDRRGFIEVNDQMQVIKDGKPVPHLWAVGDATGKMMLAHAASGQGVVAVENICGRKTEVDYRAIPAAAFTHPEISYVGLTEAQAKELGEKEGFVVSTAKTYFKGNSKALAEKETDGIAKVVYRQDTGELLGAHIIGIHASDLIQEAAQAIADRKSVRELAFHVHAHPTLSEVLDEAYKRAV
Experiment: NAD+ reduction at […] nm; Ki from slopes of Lineweaver-Burk plots
Format: biochemical

NC(=O)C1=CN([C@@H]2O[C@H](COP(=O)(O)OP(=O)(O)OC[C@H]3O[C@@H](n4cnc5c(N)ncnc54)[C@H](O)[C@@H]3O)[C@@H](O)[C@H]2O)C=CC1 [NADH]
pKi: 4.42
